Here are results for 8 compounds from US7709613B2, “Rhenium-188 and rhenium-186 for treatment of tumors expressing a Na+/I− symporter” (priority 2002, dated 2010).

The conditions of data set [1]: ref. [23]; cited from earlier work.
For data set [2], the system named is NIS-expressing xenografted mammary adenocarcinoma (NAFA cells). Format: in vivo, nude mice. The procedure: Animal model. […] Since erbB-2 (Neu) is one of the better known human breast cancer oncogenes, a mammary tumor cell line (NAFA) induced by oncogenic Neu was used. The NAFA cell line derived from the MMTV-NeuT mouse was grown in DMEM with 10% fetal bovine serum and 1% penicillin-streptomycin. […] Female nude mice (Charles River Laboratories) 4-6 weeks old were injected SC with 10^6 NAFA cells into the left groin.
Biodistribution. […] In order to block mg-NIS in expressing organs and tumor, control animals were injected with the above mixture of isotopes combined with 2 mg NaClO4. […] The % ID/g for each organ was determined, and RIs (% ID/g in the tumor divided by the % ID/g in normal tissue) were calculated.

In data set [3] the test system is FRTL-5 cells. The settings on record: read-out: Km for ^125I^− influx; cited from earlier work.
The target in data set [4] is T1, hNIS (Homo sapiens, UniProt Q92911).
T1 construct: expressed in transfected cells; host or cells: MDCK (Madin-Darby canine kidney) cells, hNIS in pcDNA 3.1
T1 sequence (Q92911 1-643): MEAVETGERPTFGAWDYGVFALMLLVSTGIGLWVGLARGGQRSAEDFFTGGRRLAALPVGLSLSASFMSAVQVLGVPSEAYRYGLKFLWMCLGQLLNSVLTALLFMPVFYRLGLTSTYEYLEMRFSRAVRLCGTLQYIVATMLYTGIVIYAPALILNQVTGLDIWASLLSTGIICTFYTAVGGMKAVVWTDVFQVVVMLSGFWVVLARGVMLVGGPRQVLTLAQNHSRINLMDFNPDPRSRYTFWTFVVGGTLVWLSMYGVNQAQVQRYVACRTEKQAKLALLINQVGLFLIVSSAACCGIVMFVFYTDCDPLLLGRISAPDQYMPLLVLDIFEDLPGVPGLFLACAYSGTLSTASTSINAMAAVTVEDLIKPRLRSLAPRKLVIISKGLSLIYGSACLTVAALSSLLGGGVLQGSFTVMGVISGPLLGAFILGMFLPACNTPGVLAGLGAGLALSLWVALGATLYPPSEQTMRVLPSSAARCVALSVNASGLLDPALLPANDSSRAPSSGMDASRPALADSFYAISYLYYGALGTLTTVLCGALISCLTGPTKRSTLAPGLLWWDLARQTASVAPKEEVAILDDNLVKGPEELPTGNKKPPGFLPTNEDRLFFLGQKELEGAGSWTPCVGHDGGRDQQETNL
Briefly: Comparative 125I and 188Re uptake into hNIS-transfected and non-transfected MDCK cells. The settings on record: for Km: hNIS-transfected MDCK cells, Lineweaver-Burk plot, 4-min initial rates, read-out: Km for influx. Format: cell-based. As to the method:
Comparative ^125I and ^188Re uptake into the NIS-expressing cells. Both concentration dependence and kinetic experiments for ^125I and ^188ReO4^− in hNIS-transfected (hNIS in pcDNA 3.1 plasmid) and non-transfected MDCK (Madin-Darby canine kidney) cells were performed using the methods of Weiss et al. and Dai et al.. […] A 4-min time point was used to estimate initial rates for kinetic experiments. Saturation kinetics were analyzed by Lineweaver-Burk plot.

Data set [5] has as its target T2, rat thyroid NIS (Rattus norvegicus, UniProt Q63008).
T2 sequence (Q63008 1-618): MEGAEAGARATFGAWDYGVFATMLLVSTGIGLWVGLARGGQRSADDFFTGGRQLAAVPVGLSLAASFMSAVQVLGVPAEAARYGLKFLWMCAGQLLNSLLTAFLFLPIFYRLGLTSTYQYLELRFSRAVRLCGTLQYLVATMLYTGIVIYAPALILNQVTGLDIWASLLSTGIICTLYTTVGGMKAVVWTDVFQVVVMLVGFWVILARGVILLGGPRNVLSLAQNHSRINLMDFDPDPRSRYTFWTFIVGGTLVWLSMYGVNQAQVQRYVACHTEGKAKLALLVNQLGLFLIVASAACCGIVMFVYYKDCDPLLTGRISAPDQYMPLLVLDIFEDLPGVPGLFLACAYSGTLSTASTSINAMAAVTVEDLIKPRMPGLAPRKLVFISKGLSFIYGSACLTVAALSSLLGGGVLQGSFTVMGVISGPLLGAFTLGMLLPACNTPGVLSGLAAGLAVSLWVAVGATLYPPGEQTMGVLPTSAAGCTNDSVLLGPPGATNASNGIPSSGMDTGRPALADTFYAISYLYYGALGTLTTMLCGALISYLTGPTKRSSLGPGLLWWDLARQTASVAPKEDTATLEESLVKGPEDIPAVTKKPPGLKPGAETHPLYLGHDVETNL
The settings on record: ref. [44], cited from earlier work; for Km: actively transported ions.

The test system of data set [6] is NAFA cells-xenografted tumors. The experiment in a line: Treatment of nude mice bearing NAFA cells-xenografted tumors. It is filed as in vivo. The settings on record: 1.5 mCi followed by 2nd dose of 1.5 mCi one week later; vs untreated tumors. The procedure:
Animal model. To investigate the binding of ^125I and ^188Re to NIS-expressing mammary tumors, a xenografted mammary adenocarcinoma model in nude mice was used. Since erbB-2 (Neu) is one of the better known human breast cancer oncogenes, a mammary tumor cell line (NAFA) induced by oncogenic Neu was used. The NAFA cell line derived from the MMTV-NeuT mouse was grown in DMEM with 10% fetal bovine serum and 1% penicillin-streptomycin. […] Female nude mice (Charles River Laboratories) 4-6 weeks old were injected SC with 10^6 NAFA cells into the left groin. Ten days after injection the tumors reached 0.5-0.7 cm in diameter.
When the tumors reached 0.5-0.7 cm in diameter, the animals were treated with 1.5 mCi ^188ReO4^− followed by a 2nd dose of 1.5 mCi ^188ReO4^− one week later.

The nature of data set [7]: Dosimetry calculations (MIRDOSE 3) for 70-kg reference adult bearing a 2 g tumor. More on the design: species or system human. The settings on record: using S-values for the whole body. The procedure:
Dosimetry. The self-doses to major organs and tumors from ^131I and ^188Re in humans were calculated using MIRDOSE 3 software (ORNL) applying S-values for a 70-kg reference adult. “S” is an absorbed dose per unit cumulated activity. S-values are tabulated in the Medical Internal Radiation Dose pamphlet #11 published by the Society of Nuclear Medicine. The following formula [26] was used for conversion of time-activity data in mice into time-activity data in humans: % ID human organ=% ID/ganimal organ·(body massaninal/body masshuman)·organ masshuman.
It should be noted that dosimetry calculations in humans were performed with the sole purpose of comparing the therapeutic efficacy and potential damage to the stomach and thyroid from ^131I and ^188Re beta-particles, thus only “self” doses were calculated. […] However, in more comprehensive dosimetry calculations organ cross-irradiation from highly penetrative ^131I gamma-rays should be taken into consideration.

Data set [8] relates to NAFA-cells xenografts. Briefly: Histological analysis for apoptosis (Apoptag Plus kit) of NAFA-cells xenografts. The settings on record: 2×1.5 mCi, day 35 post-treatment; vs control tumors. It is filed as in vivo, nude mice. The text has this: At the completion of the experimental treatment with ^188Re-perrhenate, the animals were sacrificed, their tumors removed, fixed in buffered formaline, cut and analyzed for apoptosis using an Apoptag Plus® kit. Briefly, 3′-OH termini of DNA fragments, which are the hallmark of apoptosis, were labeled with digoxigenin-modified nucleotides by terminal deoxynucleotidyl transferase (TdT). […] The labeled DNA was detected using an anti-digoxigenin antibody, and the detection was performed using a chromagen. As a result the apoptotic cells were stained brown. The results are shown in FIGS. 5A-5B, where apoptotic cells appear lightly stained in the black-and-white image. […] This observation is consistent with the fact that particulate ionizing radiation is known to cause cell death through both apoptotic and necrotic pathways.

The nature of data set [9]: Safe dose study in healthy mice, 80 days observation, thyroid and stomach histology. The settings on record: 1.5 mCi. Format: in vivo. As to the method:
To establish the safe dose of ^188ReO4^− to treat the NIS-expressing tumors in mice, healthy mice were treated with 1.5 mCi ^188ReO4^− and observed for 80 days. […] After 80 days the animals were sacrificed, their thyroids and stomachs removed and analyzed histologically. FIGS. 3A-3C present the hematoxylin and eosin stained thyroid tissue from a control mouse, a mouse treated with 1.5 mCi ^188ReO4^−, and a mouse treated with 50 μCi ^131I^−. FIGS. 3D-3E show the stomachs from the control mouse and the mouse treated with 1.5 mCi ^188ReO4^−, respectively.

Read-outs that look alike come from different tables or passages of the source.

In the case of `[131IH]` [^131I^−], in data set [1], the “Actual dose to the thyroid, due to iodine organification” value is recorded as 1300 rad/mCi and the Whole body dose is recorded as 0.71 rad/mCi.
As to `[O-][Cl+3]([O-])([O-])O` [ClO4^−, Na perchlorate, reference compound], in data set [2] (2 mg NaClO4 co-injected, all 3 time points), the “Effect of co-administered blocking agent on uptake of both isotopes by NIS-expressing organs” value was “significantly decreased uptake of both isotopes by the stomach, salivary glands and thyroid”.
Usually Km stands for the substrate concentration at which the rate is half of its maximum. With `[I-].[Na+]` [^125I^−, sodium iodide, reference compound], the Km was 30 µM in data set [3] and 26.1 µM in [4].
`[O]=[Re](=[O])(=[O])[O-]` [ReO4^−]: the “Blocking of NIS” value in [5] is reported as “potent blocking agent for NIS”.
Take `[Na+].[O]=[Re](=[O])(=[O])[O-]` [^188ReO4^−, Na perrhenate Na^188ReO4]: in [4], the Km is 12.6 µM.
With `[Na+].[O]=[188Re](=[O])(=[O])[O-]` [^188ReO4^−, Na perrhenate Na^188ReO4], the Tumor growth result in data set [6] is recorded as “Tumor growth stabilization”. Further, in data set [7], the “Whole body dose relative to ^131I^−” value is on record as about 2 times. Moreover, the “Apoptotic cells in tumors” value in data set [8] was “significantly higher number of apoptotic cells”. Besides, the “Damage to normal NIS-containing structures (thyroid, stomach histology)” value in [9] (80 days, hematoxylin and eosin) is on record as “absence of damage”. The “Weight loss or gastrointestinal toxicity” value in data set [9] (observed for 80 days) is “No weight loss or other gastrointestinal toxicity”. Also, the “Concentration gradient in hNIS-transfected in comparison to non-transfected cells” value in data set [4] (MDCK cells) is given as 14 fold. The “Tumor to normal organ ratio (RI)” value in [2] (20 min, blood) was 0.41; in data set [2] (20 min, kidneys), 1.22; in data set [2] (20 min, liver), 1.27; in data set [2] (20 min, muscle), 8.21; in data set [2] (20 min, salivary glands) it was 1.46; in data set [2] (20 min, spleen), 1.39. In addition, the “Tumor to normal organ ratio (RI)” value in data set [2] (20 min, stomach) stood at 0.10; in [2] (20 min, thyroid), 0.52; in data set [2] (20 min, tumor) it was 1.00; in data set [2] (2 hr, blood), 0.54; in data set [2] (2 hr, kidneys), 1.40; in [2] (2 hr, liver), 1.43. Also, the “Tumor to normal organ ratio (RI)” value came out at 5.22 in data set [2] (2 hr, muscle); 0.54 in data set [2] (2 hr, salivary glands); 2.99 in data set [2] (2 hr, spleen); 0.08 in data set [2] (2 hr, stomach); 0.25 in data set [2] (2 hr, thyroid); 1.00 in data set [2] (2 hr, tumor). Moreover, the “Tumor to normal organ ratio (RI)” value in data set [2] (24 hr, blood) was 1.45; in data set [2] (24 hr, kidneys) it was 3.08; in data set [2] (24 hr, liver), 8.00; in [2] (24 hr, muscle) it was 12.50; in [2] (24 hr, salivary glands), 2.85; in data set [2] (24 hr, spleen) it was 10.00. In addition, the “Tumor to normal organ ratio (RI)” value was determined as 0.17 in data set [2] (24 hr, stomach); 2.00 in data set [2] (24 hr, thyroid); 1.00 in data set [2] (24 hr, tumor).
On to `[O-][Cl+2]([O-])O` [ClO3^−], for which, in data set [5], the Km was 277 µM.
Turning to `O=[N+]([O-])O` [NO3^−], in data set [5], the Km is 739 µM.
